Reference: ChEMBL document CHEMBL4043115, “1,3-Oxazole-based selective picomolar inhibitors of cytosolic human carbonic anhydrase II alleviate ocular hypertension in rabbits: Potency is supported by X-ray crystallography of two leads” (Bioorg Med Chem, 2017)
Active and inactive are the calls of the source. No cut-off for these calls is given here.

What was measured:
Assay type in all cases: functional
Oryctolagus cuniculus [1] = assay: Ocular hypotensive activity in New Zealand albino rabbit eye assessed as reduction in hypertonic saline-induced intraocular pressure at 2% administered as eye drop measured at 60 mins post administration by applanation tonometry
Oryctolagus cuniculus [2] = assay: Ocular hypotensive activity in New Zealand albino rabbit eye assessed as reduction in hypertonic saline-induced intraocular pressure at 1% administered as eye drop measured at 60 mins post administration by applanation tonometry
Oryctolagus cuniculus [3] = assay: Ocular hypotensive activity in New Zealand albino rabbit eye assessed as reduction in hypertonic saline-induced intraocular pressure at 1% administered as eye drop measured at 4 hrs post administration by applanation tonometry

| SMILES | Activity (Oryctolagus cuniculus [1]) | Activity (Oryctolagus cuniculus [2]) | Activity (Oryctolagus cuniculus [3]) |
| --- | --- | --- | --- |
| CCN[C@H]1C[C@H](C)S(=O)(=O)c2sc(S(N)(=O)=O)cc21 | Active | – | – |
| NS(=O)(=O)c1ccc(-c2cnc(C(=O)N3CCOCC3)o2)s1 | – | Active | Active |
| Cc1ncc(-c2ccc(S(N)(=O)=O)cc2)o1 | – | Active | Active |
